Data reported in PubChem BioAssay AID330 (DTP/NCI, 2004).
Values joined by “and” are separate entries in the source; they are usually repeats but may differ in a detail not shown here. Identical values can stand only once. Toxic doses and inconclusive results are not listed. The calls were made as follows: active = survival T/C of 150% or more; inactive = T/C below 125% in these data.

Tested on: P388 leukemia ip, CD2F1 mice, survival T/C
Assay: NCI In Vivo Anticancer Drug Screen. Data for tumor model P388 Leukemia (intraperitoneal) in CD2F1 (CDF1) mice
Conditions: endpoint: median survival time, higher = longer survival
Procedure, shortened: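 Mice carrying the transplanted tumor received test compound or vehicle. Survival was recorded in each group, and the value is the treated-group measurement divided by that of the vehicle-treated control group.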

[1] = dose: 25.0 mg/kg/injection, schedule: Q04DX002 (ip), vehicle: saline with Tween-80
[2] = dose: 50.0 mg/kg/injection, schedule: Q04DX002 (ip), vehicle: saline with Tween-80
[3] = dose: 50.0 mg/kg/injection, schedule: Q01DX005 (ip), vehicle: Klucel (hydroxypropylcellulose) (HPC)
[4] = dose: 100.0 mg/kg/injection, schedule: Q01DX005 (ip), vehicle: Klucel (hydroxypropylcellulose) (HPC)
[5] = dose: 200.0 mg/kg/injection, schedule: Q01DX005 (ip), vehicle: Klucel (hydroxypropylcellulose) (HPC)
[6] = dose: 25.0 mg/kg/injection, schedule: Q01DX005 (ip), vehicle: Klucel (hydroxypropylcellulose) (HPC)
[7] = dose: 60.0 mg/kg/injection, schedule: Q01DX005 (ip), vehicle: saline with Tween-80
[8] = dose: 120.0 mg/kg/injection, schedule: Q01DX005 (ip), vehicle: saline with Tween-80
[9] = dose: 240.0 mg/kg/injection, schedule: Q01DX005 (ip), vehicle: saline with Tween-80
[10] = dose: 60.0 mg/kg/injection, schedule: Q01DX005 (ip), vehicle: saline
[11] = dose: 120.0 mg/kg/injection, schedule: Q01DX005 (ip), vehicle: saline
[12] = dose: 240.0 mg/kg/injection, schedule: Q01DX005 (ip), vehicle: saline

Measured: T/C

COC(=O)C1c2cc(OC)c(OC)cc2C(=O)N2CCc3cc4c(cc3C12)OCO4 (configuration not stated)
inactive: dose: 50.0 mg/kg/injection, schedule: Q04DX003 (ip), vehicle: distilled water + Tween-80 100 % of control and 101 % of control | dose: 100.0 mg/kg/injection, schedule: Q04DX003 (ip), vehicle: distilled water + Tween-80 99 % of control and 105 % of control | dose: 200.0 mg/kg/injection, schedule: Q04DX003 (ip), vehicle: distilled water + Tween-80 97 % of control and 101 % of control | dose: 400.0 mg/kg/injection, schedule: Q04DX003 (ip), vehicle: distilled water + Tween-80 104 % of control and 100 % of control

Nc1cc(C(CC(=O)NO)NO)ccc1[N+](=O)[O-] (configuration not stated)
inactive: dose: 50.0 mg/kg/injection, schedule: Q01DX009 (ip), vehicle: Klucel (hydroxypropylcellulose) (HPC) 94 % of control | dose: 100.0 mg/kg/injection, schedule: Q01DX009 (ip), vehicle: Klucel (hydroxypropylcellulose) (HPC) 110 % of control | dose: 200.0 mg/kg/injection, schedule: Q01DX009 (ip), vehicle: Klucel (hydroxypropylcellulose) (HPC) 102 % of control

Nc1nc(-c2ccccn2)cc(-c2cc(-c3ccccn3)nc(N)n2)n1
inactive: dose: 60.0 mg/kg/injection, schedule: Q01DX005 (ip), vehicle: Klucel (hydroxypropylcellulose) (HPC) 102 % of control | dose: 120.0 mg/kg/injection, schedule: Q01DX005 (ip), vehicle: Klucel (hydroxypropylcellulose) (HPC) 112 % of control

C1CCC2(CC1)N=C1CCCCC1S2 (configuration not stated)
inactive: dose: 6.25 mg/kg/injection, schedule: Q01DX005 (ip), vehicle: saline + Tween-80 + alcohol 106 % of control | dose: 12.5 mg/kg/injection, schedule: Q01DX005 (ip), vehicle: saline + Tween-80 + alcohol 98 % of control | dose: 25.0 mg/kg/injection, schedule: Q01DX005 (ip), vehicle: saline + Tween-80 + alcohol 104 % of control

O=C1CCC(=O)S1
inactive: dose: 12.5 mg/kg/injection, schedule: Q04DX002 (ip), vehicle: saline with Tween-80 100 % of control | [1] 91 % of control | [2] 91 % of control

Cc1cc(C(O)(C(F)(F)F)C(F)(F)F)c2c(c1)C(C(F)(F)F)(C(F)(F)F)OC(C)(C)N2
inactive: [3] 100 % of control | [4] 100 % of control | [5] 101 % of control

C/C=C/C(=O)Oc1ccc[nH]c1=O
inactive: [6] 105 % of control and 91 % of control | [3] 114 % of control and 116 % of control | [4] 108 % of control and 113 % of control | [5] 92 % of control

COc1cc([C@H]2c3c(cc(OC)c(OC)c3OC)CC3COC(=O)[C@@H]32)cc(Br)c1O (some centres not stated)
inactive: [7] 101 % of control | [8] 95 % of control | [9] 98 % of control

CC(C)c1ccc(N2C=Nc3ccc(C(C)C)cc3C2)cc1
inactive: dose: 50.0 mg/kg/injection, schedule: Q01DX009 (ip), vehicle: other 92 % of control | dose: 100.0 mg/kg/injection, schedule: Q01DX009 (ip), vehicle: other 99 % of control | dose: 200.0 mg/kg/injection, schedule: Q01DX009 (ip), vehicle: other 99 % of control

C=CC1(C)CCC(C(C)C(=O)/C=C/C(C)(C)O)O1 (configuration not stated)
inactive: dose: 22.0 mg/kg/injection, schedule: Q01DX005 (ip), vehicle: Klucel (hydroxypropylcellulose) (HPC) 105 % of control | dose: 44.0 mg/kg/injection, schedule: Q01DX005 (ip), vehicle: Klucel (hydroxypropylcellulose) (HPC) 113 % of control | dose: 88.0 mg/kg/injection, schedule: Q01DX005 (ip), vehicle: Klucel (hydroxypropylcellulose) (HPC) 114 % of control | dose: 176.0 mg/kg/injection, schedule: Q01DX005 (ip), vehicle: Klucel (hydroxypropylcellulose) (HPC) 118 % of control

C=CC12COC(=O)C(=C)C1C(O)C1C(=C)C(=O)OC1C2 (configuration not stated)
inactive: dose: 0.5 mg/kg/injection, schedule: Q01DX009 (ip), vehicle: saline 97 % of control | dose: 1.0 mg/kg/injection, schedule: Q01DX009 (ip), vehicle: saline 97 % of control | dose: 2.0 mg/kg/injection, schedule: Q01DX009 (ip), vehicle: saline 106 % of control | dose: 4.0 mg/kg/injection, schedule: Q01DX009 (ip), vehicle: saline 110 % of control

O=P(c1ccccc1)(c1ccccc1)c1ccccc1OCCCO
inactive: [3] 99 % of control | [4] 100 % of control | [5] 97 % of control

CN=C(N)NN=C(c1cccc(F)c1)c1cccc(F)c1
inactive: [1] 100 % of control | [2] 102 % of control | dose: 100.0 mg/kg/injection, schedule: Q04DX002 (ip), vehicle: saline with Tween-80 100 % of control

COc1ccc(/C=C/C(=O)c2ccccc(=O)c2O)cc1OC
inactive: [6] 99 % of control | [3] 100 % of control | [4] 114 % of control | [5] 113 % of control

CCOc1ccc(C(C)c2cc3c(cc2OC)OCO3)cc1C (configuration not stated)
active: dose: 400.0 mg/kg/injection, schedule: Q01DX005 (ip), vehicle: Klucel (hydroxypropylcellulose) (HPC) 165 % of control
inactive: [3] 109 % of control and 113 % of control | [4] 108 % of control and 118 % of control | [5] 116 % of control

O=S(=O)(O)C(O)C(F)(F)C(F)(F)C(F)(F)F (configuration not stated)
inactive: [10] 98 % of control | [11] 94 % of control | [12] 99 % of control

O=S12(OC(C(F)(F)F)(C(F)(F)F)c3ccccc31)OC(C(F)(F)F)(C(F)(F)F)c1ccccc12
inactive: [3] 111 % of control | [4] 103 % of control | [5] 100 % of control

OC(c1cccnc1)C(CCc1ccccn1)c1ccccn1 (configuration not stated)
inactive: dose: 100.0 mg/kg/injection, schedule: Q04DX003 (ip), vehicle: saline 102 % of control | dose: 200.0 mg/kg/injection, schedule: Q04DX003 (ip), vehicle: saline 101 % of control | dose: 400.0 mg/kg/injection, schedule: Q04DX003 (ip), vehicle: saline 91 % of control

CN=C(N)N/N=C(\C)c1ccc2ccc3ccccc3c2c1
inactive: [2] 105 % of control

C[C@H]1/C(=C/C(=O)OCCN(C)C)CC[C@H]2[C@H]1C(=O)C[C@H]1C(C)(C)[C@@H](O)CC[C@]21C
inactive: dose: 3.12 mg/kg/injection, schedule: Q01DX009 (ip), vehicle: saline 101 % of control | dose: 6.25 mg/kg/injection, schedule: Q01DX009 (ip), vehicle: saline 96 % of control | dose: 12.5 mg/kg/injection, schedule: Q01DX009 (ip), vehicle: saline 100 % of control | dose: 25.0 mg/kg/injection, schedule: Q01DX009 (ip), vehicle: saline 100 % of control

CCN(CC)CCCNC(=O)C(c1ccccc1)c1ccccc1
inactive: dose: 12.5 mg/kg/injection, schedule: Q01DX005 (ip), vehicle: saline 100 % of control | dose: 25.0 mg/kg/injection, schedule: Q01DX005 (ip), vehicle: saline 115 % of control | dose: 50.0 mg/kg/injection, schedule: Q01DX005 (ip), vehicle: saline 100 % of control and 92 % of control

O=C(c1ccccc1)c1cc(Cl)ccc1NCC(O)COc1cccc2ccccc12 (configuration not stated)
inactive: [7] 100 % of control | [8] 91 % of control | [9] 88 % of control

CCCCNC(=O)CCC(NS(=O)(=O)c1ccc(C)cc1)C(=O)NCCCC (configuration not stated)
inactive: [3] 93 % of control | [4] 100 % of control | [5] 93 % of control

Cc1ccc(S(=O)(=O)N/N=C/c2cccs2)cc1
inactive: dose: 50.0 mg/kg/injection, schedule: Q01DX009 (ip), vehicle: saline with Tween-80 95 % of control | dose: 100.0 mg/kg/injection, schedule: Q01DX009 (ip), vehicle: saline with Tween-80 87 % of control | dose: 200.0 mg/kg/injection, schedule: Q01DX009 (ip), vehicle: saline with Tween-80 93 % of control | dose: 400.0 mg/kg/injection, schedule: Q01DX009 (ip), vehicle: saline with Tween-80 102 % of control

O=C1CSc2ncccc2N1c1ccc([N+](=O)[O-])cn1
inactive: dose: 50.0 mg/kg/injection, schedule: Q01DX009 (ip), vehicle: suspension in saline 105 % of control | dose: 100.0 mg/kg/injection, schedule: Q01DX009 (ip), vehicle: saline 100 % of control | dose: 100.0 mg/kg/injection, schedule: Q01DX009 (ip), vehicle: suspension in saline 101 % of control | dose: 200.0 mg/kg/injection, schedule: Q01DX009 (ip), vehicle: saline 96 % of control | dose: 200.0 mg/kg/injection, schedule: Q01DX009 (ip), vehicle: suspension in saline 101 % of control

CC(C)C1=CC2C3C(=O)NC(=O)C3C1C1C3C(=O)NC(=O)C3C21 (configuration not stated)
inactive: [10] 98 % of control | [11] 100 % of control | [12] 100 % of control

C(#Cc1c2ccccc2c(C#Cc2ccccc2)c2c(-c3ccccc3)cccc12)c1ccccc1
inactive: dose: 50.0 mg/kg/injection, schedule: Q01DX005 (ip), vehicle: saline with Tween-80 97 % of control | dose: 100.0 mg/kg/injection, schedule: Q01DX005 (ip), vehicle: saline with Tween-80 87 % of control
